{"source": "patent US9241487B2", "about": "“Pyrimidine derivatives and use thereof as pesticides” (BAYER INTELLECTUAL PROPERTY GMBH, priority 2010, dated 2016)", "type_in_all_cases": "in vivo", "key": {"Alternaria solani": {"test_system": "Alternaria solani", "assay": "Alternaria test (tomato)/protective", "settings": "168 h, tomato plants, protective spray, evaluation 7 days after inoculation, read-out: Efficacy (%)", "protocol": "Alternaria Test (Tomato)/Protective\n(§1) Solvent: 49 parts by weight of N,N-dimethylformamide\n(§2) Emulsifier: 1 part by weight of alkylaryl polyglycol ether\nTo produce a suitable preparation of active compound, 1 part by weight of active compound is mixed with the stated amounts of solvent and emulsifier, and the concentrate is diluted with water to the desired concentration. To test for protective activity, young tomato plants are sprayed with the preparation of active compound at the stated application rate. 1 day after the treatment, the plants are inoculated with a spore suspension of Alternaria solani and then remain at 100% rd. humidity and 22° C. for 24 h. The plants then remain at 96% rd. atmospheric humidity and a temperature of 20° C. Evaluation is carried out 7 days after the inoculation. 0% means an efficacy which corresponds to that of the control, whereas an efficacy of 100% means that no infection is observed.\n(§3) In this test, the following compounds according to the invention show, at an active compound concentration of 500 ppm, an efficacy of 70% or more: […]"}, "Leptosphaeria nodorum": {"test_system": "Leptosphaeria nodorum", "assay": "Leptosphaeria nodorum test (wheat)/protective", "settings": "Parastagonospora nodorum, wheat plants, protective spray, evaluation 7-9 days after inoculation, read-out: Efficacy (%)", "protocol": "Leptosphaeria nodorum Test (Wheat)/Protective\nas §1, §2\nTo produce a suitable preparation of active compound, 1 part by weight of active compound is mixed with the stated amounts of solvent and emulsifier, and the concentrate is diluted with water to the desired concentration. To test for protective activity, young wheat plants are sprayed with the preparation of active compound at the stated application rate. 1 day after the treatment, the plants are inoculated with an aqueous spore suspension of Leptosphaeria nodorum and then remain at 100% relative atmospheric humidity and 22° C. for 48 h. The plants are then placed in a greenhouse at 90% relative atmospheric humidity and a temperature of 22° C. Evaluation is carried out 7-9 days after the inoculation. 0% means an efficacy which corresponds to that of the control, whereas an efficacy of 100% means that no infection is observed. In this test, the following compounds according to the invention show, at an active compound concentration of 500 ppm, an efficacy of 70% or more: […]"}, "Uromyces appendiculatus": {"test_system": "Uromyces appendiculatus", "assay": "Uromyces test (bean)/protective", "settings": "240 h, protective spray, evaluation 10 days after inoculation, read-out: Efficacy (%)", "protocol": "Uromyces Test (Bean)/Protective\nSolvents: 24.5 parts by weight of acetone\n• 24.5 parts by weight of dimethylacetamide Emulsifier: 1 part by weight of alkylaryl polyglycol ether\nTo produce a suitable preparation of active compound, 1 part by weight of active compound is mixed with the stated amounts of solvent and emulsifier, and the concentrate is diluted with water to the desired concentration. To test for protective activity, young plants are sprayed with the preparation of active compound at the stated application rate. After the spray coating has dried on, the plants are inoculated with an aqueous spore suspension of the bean rust pathogen Uromyces appendiculatus and then remain in an incubation cabin at about 20° C. and 100% relative atmospheric humidity for 1 day. The plants are then placed in the greenhouse at about 21° C. and a relative atmospheric humidity of about 90%. Evaluation follows 10 days after the inoculation. 0% means an efficacy which corresponds to that of the control, whereas an efficacy of 100% means that no infection is observed.\nIn this test, the following compounds according to the invention show, at an active compound concentration of 100 ppm, an efficacy of 70% or more: […]"}, "[1]": {"test_system": "Blumeria graminis fsp. hordei", "assay": "Blumeria graminis test (barley)/protective", "settings": "168 h, protective spray, evaluation 7 days after inoculation, read-out: Efficacy (%)", "protocol": "Blumeria graminis Test (Barley)/Protective\n(§4) Solvent: 49 parts by weight of N,N-dimethylacetamide\nas §2\nTo produce a suitable preparation of active compound, 1 part by weight of active compound is mixed with the stated amounts of solvent and emulsifier, and the concentrate is diluted with water to the desired concentration. To test for protective activity, young plants are sprayed with the preparation of active compound at the stated application rate. After the spray coating has dried on, the plants are dusted with spores of Blumeria graminis fsp. hordei. The plants are placed in a greenhouse at a temperature of about 18° C. and a relative air humidity of about 80% to promote the development of mildew pustules. Evaluation follows 7 days after the inoculation. 0% means an efficacy which corresponds to that of the control, whereas an efficacy of 100% means that no infection is observed.\nas §3"}, "Septoria tritici": {"test_system": "Septoria tritici", "assay": "Septoria tritici test (wheat)/protective", "settings": "Zymoseptoria tritici, 504 h, protective spray, evaluation 21 days after inoculation, read-out: Efficacy (%)", "protocol": "Septoria tritici Test (Wheat)/Protective\nas §4, §2\n(§5) To produce a suitable preparation of active compound, 1 part by weight of active compound is mixed with the stated amounts of solvent and emulsifier, and the concentrate is diluted with water to the desired concentration. To test for protective activity, young plants are sprayed with the preparation of active compound at the stated application rate. After the spray coating has dried on, the plants are sprayed with a spore suspension of Septoria tritici. The plants remain in an incubation cabin at 20° C. and 100% relative atmospheric humidity for 48 hours. Thereafter, the plants are placed under a translucent hood at 15° C. and 100% relative air humidity for a further 60 hours. The plants are placed in a greenhouse at a temperature of about 15° C. and a relative atmospheric humidity of about 80%. Evaluation follows 21 days after the inoculation. 0% means an efficacy which corresponds to that of the control, whereas an efficacy of 100% means that no infection is observed.\nas §3"}, "Puccinia triticina": {"test_system": "Puccinia triticina", "assay": "Puccinia triticina test (wheat)/protective", "settings": "192 h, protective spray, evaluation 8 days after inoculation, read-out: Efficacy (%)", "protocol": "Puccinia triticina Test (Wheat)/Protective\nas §4, §2\nas §5, with “sprayed with spores with a spore” for “sprayed with a spore”, “suspension of Puccinia triticina. The plants” for “suspension of Septoria tritici. The plants”, “48 hours. The plants” for “48 hours. Thereafter, the plants are placed under a translucent hood at 15° C. and 100% relative air humidity for a further 60 hours. The plants”, “of about 20° C. and” for “of about 15° C. and”, “Evaluation follows 8 days after” for “Evaluation follows 21 days after”\nas §3"}}, "data": [{"smiles": "CC(C)C(O)(COc1ccc(OC(F)(F)F)cc1)c1cncnc1", "note": "(stereo not drawn) [Compound 2]", "values": [{"measurement": "pest or weed control at 500 ppm", "setting": "Alternaria solani", "result": 100, "unit": "%"}, {"measurement": "pest or weed control at 500 ppm", "setting": "Leptosphaeria nodorum", "result": 100, "unit": "%"}, {"measurement": "pest or weed control at 100 ppm", "setting": "Uromyces appendiculatus", "result": 100, "unit": "%"}, {"measurement": "pest or weed control at 500 ppm", "setting": "[1]", "result": 100, "unit": "%"}, {"measurement": "pest or weed control at 500 ppm", "setting": "Septoria tritici", "result": 93, "unit": "%"}, {"measurement": "pest or weed control at 500 ppm", "setting": "Puccinia triticina", "result": 100, "unit": "%"}]}, {"smiles": "CC(C)(C)C(O)(COc1ccc(OC(F)(F)F)cc1)c1cncnc1", "note": "(stereo not drawn) [Compound 12]", "values": [{"measurement": "pest or weed control at 500 ppm", "setting": "Alternaria solani", "result": 100, "unit": "%"}, {"measurement": "pest or weed control at 500 ppm", "setting": "Leptosphaeria nodorum", "result": 95, "unit": "%"}, {"measurement": "pest or weed control at 100 ppm", "setting": "Uromyces appendiculatus", "result": 100, "unit": "%"}, {"measurement": "pest or weed control at 500 ppm", "setting": "[1]", "result": 100, "unit": "%"}, {"measurement": "pest or weed control at 500 ppm", "setting": "Septoria tritici", "result": 100, "unit": "%"}, {"measurement": "pest or weed control at 500 ppm", "setting": "Puccinia triticina", "result": 100, "unit": "%"}]}, {"smiles": "CC(C)(C)C(O)(COc1ccc(SC(F)(F)F)cc1)c1cncnc1", "note": "(stereo not drawn) [Compound 17]", "values": [{"measurement": "pest or weed control at 500 ppm", "setting": "Alternaria solani", "result": 94, "unit": "%"}, {"measurement": "pest or weed control at 500 ppm", "setting": "Leptosphaeria nodorum", "result": 94, "unit": "%"}, {"measurement": "pest or weed control at 100 ppm", "setting": "Uromyces appendiculatus", "result": 100, "unit": "%"}, {"measurement": "pest or weed control at 500 ppm", "setting": "[1]", "result": 100, "unit": "%"}, {"measurement": "pest or weed control at 500 ppm", "setting": "Septoria tritici", "result": 100, "unit": "%"}, {"measurement": "pest or weed control at 500 ppm", "setting": "Puccinia triticina", "result": 100, "unit": "%"}]}, {"smiles": "CC1(C(O)(COc2ccc(OC(F)(F)F)cc2)c2cncnc2)CC1", "note": "(stereo not drawn) [Compound 18]", "values": [{"measurement": "pest or weed control at 500 ppm", "setting": "Alternaria solani", "result": 90, "unit": "%"}, {"measurement": "pest or weed control at 500 ppm", "setting": "Leptosphaeria nodorum", "result": 95, "unit": "%"}, {"measurement": "pest or weed control at 100 ppm", "setting": "Uromyces appendiculatus", "result": 100, "unit": "%"}, {"measurement": "pest or weed control at 500 ppm", "setting": "[1]", "result": 100, "unit": "%"}, {"measurement": "pest or weed control at 500 ppm", "setting": "Septoria tritici", "result": 100, "unit": "%"}, {"measurement": "pest or weed control at 500 ppm", "setting": "Puccinia triticina", "result": 100, "unit": "%"}]}]}
